One assay deals with Estrogen receptor beta (Homo sapiens, UniProt Q92731).
A further assay has as its target T1, Estrogen receptor (Homo sapiens, UniProt P03372).
T1 sequence (P03372 whole entry): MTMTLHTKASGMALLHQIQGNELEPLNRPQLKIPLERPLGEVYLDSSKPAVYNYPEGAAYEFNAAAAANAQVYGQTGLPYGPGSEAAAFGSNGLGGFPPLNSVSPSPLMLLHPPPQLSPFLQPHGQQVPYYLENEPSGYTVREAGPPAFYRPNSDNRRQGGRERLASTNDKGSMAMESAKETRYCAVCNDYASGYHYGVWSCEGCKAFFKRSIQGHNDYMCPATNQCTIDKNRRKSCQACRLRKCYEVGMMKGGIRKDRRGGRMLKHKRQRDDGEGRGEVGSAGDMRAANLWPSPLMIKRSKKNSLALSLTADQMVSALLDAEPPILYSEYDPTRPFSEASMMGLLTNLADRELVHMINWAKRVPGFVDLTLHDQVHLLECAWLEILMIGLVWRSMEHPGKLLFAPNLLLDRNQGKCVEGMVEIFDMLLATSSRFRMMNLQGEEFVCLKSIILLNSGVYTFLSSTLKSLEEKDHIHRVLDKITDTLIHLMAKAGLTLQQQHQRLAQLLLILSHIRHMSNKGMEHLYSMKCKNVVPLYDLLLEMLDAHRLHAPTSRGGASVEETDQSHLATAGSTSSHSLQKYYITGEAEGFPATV

Assay [1] concerns the target T2, Estrogen receptor (Homo sapiens) (UniProt P03372).
T2 sequence (whole entry): T1 sequence (P03372 whole entry)
The note with it: Huh-7, filed as antagonist.
Description: Antagonist activity on ERalpha-mediated transcription of ERE-luciferase reporter gene in human Huh7 cells relative to estradiol

SMILES strings stand for the structures.

Usually IC50 stands for the concentration that gives 50% inhibition. A higher IC50 goes with weaker potency in that assay.

Estrogen receptor beta, sequence (Q92731 whole entry): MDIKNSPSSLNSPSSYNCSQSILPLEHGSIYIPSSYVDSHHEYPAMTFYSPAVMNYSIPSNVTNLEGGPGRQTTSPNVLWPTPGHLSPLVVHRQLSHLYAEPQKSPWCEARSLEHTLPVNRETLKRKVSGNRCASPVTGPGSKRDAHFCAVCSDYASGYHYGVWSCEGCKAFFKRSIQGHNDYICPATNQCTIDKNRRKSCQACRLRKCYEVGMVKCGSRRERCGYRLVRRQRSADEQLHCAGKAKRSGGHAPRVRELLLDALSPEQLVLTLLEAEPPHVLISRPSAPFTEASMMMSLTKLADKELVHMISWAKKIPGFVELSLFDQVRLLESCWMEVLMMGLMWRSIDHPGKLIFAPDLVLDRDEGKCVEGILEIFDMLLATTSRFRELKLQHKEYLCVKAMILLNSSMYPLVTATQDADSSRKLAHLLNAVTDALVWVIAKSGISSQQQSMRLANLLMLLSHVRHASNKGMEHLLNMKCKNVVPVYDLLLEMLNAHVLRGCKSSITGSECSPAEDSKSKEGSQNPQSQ
Description for Estrogen receptor beta: Displacement of [3H]E2 from human recombinant ERbeta LBD by SPA

With `CCCc1c(O)cc(O)c2c1O[C@H](c1ccc(O)cc1)CC2=O`, the IC50 on Estrogen receptor beta was determined as 29 nM; on Estrogen receptor it was 155 nM.
For the compound `CCCCCCCCCCCc1c(O)cc(O)c2c1O[C@H](c1ccc(O)cc1)CC2=O`, the IC50 at Estrogen receptor beta worked out at 421 nM; at Estrogen receptor, 1020 nM. In assay [1], the Antagonist activity entry is reported as “Partial antagonist”.
For `Cc1c(O)cc(O)c2c1O[C@H](c1ccc(O)cc1)CC2=O`, the IC50 is 863 nM against Estrogen receptor beta and 5250 nM against Estrogen receptor.
The corresponding values for `O=C1C[C@@H](c2ccc(O)cc2)Oc2cc(O)cc(O)c21` [NARINGENIN] are 13500 nM and 75300 nM.
With `O=C1C[C@@H](c2ccc(O)cc2)Oc2c(Cc3ccccc3)c(O)cc(O)c21`, the IC50 at Estrogen receptor beta was 244 nM; at Estrogen receptor it was 503 nM.
Take `CC(C)CCc1c(O)cc(O)c2c1O[C@H](c1ccc(O)cc1)CC2=O`: the results for the IC50 against Estrogen receptor beta and at Estrogen receptor were 59 nM and 140 nM, respectively.
Turning to `CC(C)(C)Cc1c(O)cc(O)c2c1O[C@H](c1ccc(O)cc1)CC2=O`, the IC50 at Estrogen receptor beta turned out to be 141 nM; at Estrogen receptor, 216 nM.
For `CC(C)Cc1c(O)cc(O)c2c1O[C@H](c1ccc(O)cc1)CC2=O`, the IC50 against Estrogen receptor beta stood at 37 nM; on Estrogen receptor, 80 nM.
For `CCCCCCCc1c(O)cc(O)c2c1O[C@H](c1ccc(O)cc1)CC2=O`, the IC50 against Estrogen receptor beta turned out to be 69 nM; at Estrogen receptor it was 392 nM. In addition, the Antagonist activity result in assay [1] was “Partial antagonist”.
With `CCCCCCCCCc1c(O)cc(O)c2c1O[C@H](c1ccc(O)cc1)CC2=O`, the figures for the concentration for half-maximal inhibition (IC50) against Estrogen receptor beta and against Estrogen receptor were 113 nM and 436 nM, respectively. For the same compound, the Antagonist activity entry in assay [1] is “Partial antagonist”.
As for `CCCCCc1c(O)cc(O)c2c1O[C@H](c1ccc(O)cc1)CC2=O`, the IC50 was 97 nM against Estrogen receptor beta and 383 nM at Estrogen receptor.

Source of the values: ChEMBL document CHEMBL1137296, “Subtle side-chain modifications of the hop phytoestrogen 8-prenylnaringenin result in distinct agonist/antagonist activity profiles for estrogen receptors alpha and beta” (J Med Chem, 2006).
